ChEMBL document CHEMBL5523723, “G Protein-Coupled Estrogen Receptor-Mediated Anti-Inflammatory and Mucosal Healing Activity of a Trimethylpyridinol Analogue in Inflammatory Bowel Disease” (J Med Chem, 2024)
The source made the active and inactive calls. The calls are words filed in the database; no cut-off is given here.

Tests used:
[1] = system: U-937; assay: Inhibition of TNFalpha induced adhesion of TPA treated human U-937 cells to human HT-29 cells at 1 uM pretreated with HT-29 for 1 hr followed by U-937 addition along with TNFalpha stimulation for 3 hrs by fluorescence based microplate reader assay relative to control; type: functional; settings: time 4 hrs
[2] = Inhibition of IL6 induced adhesion of TPA treated human U-937 cells to human HT-29 cells at 1 uM pretreated with HT-29 for 1 hr followed by U-937 addition along with IL6 stimulation for 3 hrs by fluorescence based microplate reader assay relative to control; type: functional; settings: time 4 hrs
[3] = system: HT-29; assay: Mucosal healing effect in TNFalpha induced human HT-29 cells assessed as decrease in epithelial permeability by measuring reduced […] FITC-dextran 4 level at 0.1 to 10 uM pretreated for 3 hrs followed by TNFalpha addition and subsequent FD4 addition and measured after 2 hrs by fluorescence based assay; type: functional, cell-based; settings: dose 0.1-10 µM, time 5.0 hrs
[4] = system: HT-29; assay: Mucosal healing effect in TNFalpha induced human HT-29 cells assessed as decrease in epithelial permeability by measuring reduced […] FITC-dextran 4 level at 10 uM pretreated with compound and G15 for 3 hrs followed by TNFalpha addition and subsequent FD4 addition and measured after 2 hrs by fluorescence based assay; type: functional, cell-based; settings: time 5.0 hrs
[5] = system: HT-29; assay: Induction of apoptosis in human HT-29 cells assessed as viable cells at 1 uM incubated for 24 hrs by Annexin V FITC/PI staining based flow cytometry analysis ( Rvb = 99 +/- 0.1%); type: functional; settings: read-out: Activity
[6] = system: HT-29; assay: Induction of apoptosis in human HT-29 cells assessed as early apoptotic cells at 1 uM incubated for 24 hrs by Annexin V FITC/PI staining based flow cytometry analysis ( Rvb = 0%); type: functional
[7] = system: HT-29; assay: Induction of apoptosis in human HT-29 cells assessed as late apoptotic cells at 1 uM incubated for 24 hrs by Annexin V FITC/PI staining based flow cytometry analysis ( Rvb = 0.7%); type: functional
[8] = system: HT-29; assay: Induction of apoptosis in human HT-29 cells assessed as necrotic cells at 1 uM incubated for 24 hrs by Annexin V FITC/PI staining based flow cytometry analysis ( Rvb = 0.2%); type: functional
[9] = system: HT-29; assay: Induction of apoptosis in human HT-29 cells assessed as viable cells at 5 uM incubated for 24 hrs by Annexin V FITC/PI staining based flow cytometry analysis ( Rvb = 99 +/- 0.1%); type: functional; settings: read-out: Activity
[10] = system: HT-29; assay: Induction of apoptosis in human HT-29 cells assessed as early apoptotic cells at 5 uM incubated for 24 hrs by Annexin V FITC/PI staining based flow cytometry analysis ( Rvb = 0%); type: functional
[11] = system: HT-29; assay: Induction of apoptosis in human HT-29 cells assessed as late apoptotic cells at 5 uM incubated for 24 hrs by Annexin V FITC/PI staining based flow cytometry analysis ( Rvb = 0.7%); type: functional
[12] = system: HT-29; assay: Induction of apoptosis in human HT-29 cells assessed as necrotic cells at 5 uM incubated for 24 hrs by Annexin V FITC/PI staining based flow cytometry analysis ( Rvb = 0.2%); type: functional
[13] = system: HT-29; assay: Induction of apoptosis in human HT-29 cells assessed as viable cells at 10 uM incubated for 24 hrs by Annexin V FITC/PI staining based flow cytometry analysis ( Rvb = 99 +/- 0.1%); type: functional; settings: read-out: Activity
[14] = system: HT-29; assay: Induction of apoptosis in human HT-29 cells assessed as early apoptotic cells at 10 uM incubated for 24 hrs by Annexin V FITC/PI staining based flow cytometry analysis ( Rvb = 0%); type: functional
[15] = system: HT-29; assay: Induction of apoptosis in human HT-29 cells assessed as late apoptotic cells at 10 uM incubated for 24 hrs by Annexin V FITC/PI staining based flow cytometry analysis ( Rvb = 0.7%); type: functional
[16] = system: HT-29; assay: Induction of apoptosis in human HT-29 cells assessed as necrotic cells at 10 uM incubated for 24 hrs by Annexin V FITC/PI staining based flow cytometry analysis ( Rvb = 0.2%); type: functional
[17] = system: U-937; assay: Induction of apoptosis in human U-937 cells assessed as viable cells at 1 uM incubated for 24 hrs by Annexin V FITC/PI staining based flow cytometry analysis ( Rvb = 95.2 +/- 0.4%); type: functional; settings: read-out: Activity
[18] = system: U-937; assay: Induction of apoptosis in human U-937 cells assessed as early apoptotic cells at 1 uM incubated for 24 hrs by Annexin V FITC/PI staining based flow cytometry analysis ( Rvb = 0.6 +/- 0.1 %); type: functional
[19] = system: U-937; assay: Induction of apoptosis in human U-937 cells assessed as late apoptotic cells at 1 uM incubated for 24 hrs by Annexin V FITC/PI staining based flow cytometry analysis ( Rvb = 4 +/- 0.2%); type: functional
[20] = system: U-937; assay: Induction of apoptosis in human U-937 cells assessed as necrotic cells at 1 uM incubated for 24 hrs by Annexin V FITC/PI staining based flow cytometry analysis ( Rvb = 0.2 +/- 0.1%); type: functional
[21] = system: U-937; assay: Induction of apoptosis in human U-937 cells assessed as viable cells at 5 uM incubated for 24 hrs by Annexin V FITC/PI staining based flow cytometry analysis ( Rvb = 95.2 +/- 0.4%); type: functional; settings: read-out: Activity
[22] = system: U-937; assay: Induction of apoptosis in human U-937 cells assessed as early apoptotic cells at 5 uM incubated for 24 hrs by Annexin V FITC/PI staining based flow cytometry analysis ( Rvb = 0.6 +/- 0.1 %); type: functional
[23] = system: U-937; assay: Induction of apoptosis in human U-937 cells assessed as late apoptotic cells at 5 uM incubated for 24 hrs by Annexin V FITC/PI staining based flow cytometry analysis ( Rvb = 4 +/- 0.2%); type: functional
[24] = system: U-937; assay: Induction of apoptosis in human U-937 cells assessed as necrotic cells at 5 uM incubated for 24 hrs by Annexin V FITC/PI staining based flow cytometry analysis ( Rvb = 0.2 +/- 0.1%); type: functional
[25] = system: U-937; assay: Induction of apoptosis in human U-937 cells assessed as viable cells at 10 uM incubated for 24 hrs by Annexin V FITC/PI staining based flow cytometry analysis ( Rvb = 95.2 +/- 0.4%); type: functional; settings: read-out: Activity
[26] = system: U-937; assay: Induction of apoptosis in human U-937 cells assessed as early apoptotic cells at 10 uM incubated for 24 hrs by Annexin V FITC/PI staining based flow cytometry analysis ( Rvb = 0.6 +/- 0.1 %); type: functional
[27] = system: U-937; assay: Induction of apoptosis in human U-937 cells assessed as late apoptotic cells at 10 uM incubated for 24 hrs by Annexin V FITC/PI staining based flow cytometry analysis ( Rvb = 4 +/- 0.2%); type: functional
[28] = system: U-937; assay: Induction of apoptosis in human U-937 cells assessed as necrotic cells at 10 uM incubated for 24 hrs by Annexin V FITC/PI staining based flow cytometry analysis( Rvb = 0.2 +/- 0.1%); type: functional
[29] = system: HT-29; assay: Inhibition of TNFalpha induced nuclear translocation of NF-kappaB in human HT-29 cells at 10 uM pretreated with for 3 hrs followed by TNFalpha addition by Western blotting analysis; type: functional, cell-based
[30] = system: HT-29; assay: Inhibition of TNFalpha induced nuclear translocation of p-STAT3 in human HT-29 cells at 10 uM pretreated with for 3 hrs followed by TNFalpha addition by Western blotting analysis; type: functional, cell-based
[31] = system: HT-29; assay: Mucosal healing effect in TNFalpha induced human HT-29 cells assessed as decrease in epithelial permeability by measuring reduced […] FITC-dextran 4 level at 10 uM pretreated with compound and G1 for 3 hrs followed by TNFalpha addition and subsequent FD4 addition and measured after 2 hrs by fluorescence based assay; type: functional, cell-based; settings: time 5.0 hrs

COc1ccc(C(=O)Nc2nc(C)c(O)c(C)c2C)c(OC)c1
inhibition at 1 µM [1]: 30.9% | inhibition at 1 µM [2]: 19.1%

Cc1nc(NC(=O)c2cccs2)c(C)c(C)c1O
inhibition at 1 µM [2]: 61.6%

Cc1nc(NC(=O)c2ccc(C(C)(C)C)cc2)c(C)c(C)c1O
inhibition at 1 µM [2]: 29.4%

COc1ccccc1C(=O)Nc1nc(C)c(O)c(C)c1C
inhibition at 1 µM [1]: 58% | inhibition at 1 µM [2]: 44%

Cc1ccc2c(Cl)c(C(=O)Nc3nc(C)c(O)c(C)c3C)sc2c1
inhibition at 1 µM [2]: 8.7%

Brc1cc2c(cc1[C@@H]1Nc3ccccc3[C@@H]3C=CC[C@@H]31)OCO2
Activity [3]: inactive | Activity [4]: inactive | viability at 1 µM [5]: 86.4% | Activity [6]: 1.6% | Activity [7]: 10.4% | Activity [8]: 1.6% | viability at 5 µM [9]: 84.2% | Activity [10]: 1% | Activity [11]: 13.1% | Activity [12]: 1.6% | viability at 10 µM [13]: 79.7% | Activity [14]: 2.4% | Activity [15]: 17.1% | Activity [16]: 0.7% | viability at 1 µM [17]: 79.6% | Activity [18]: 6.8% | Activity [19]: 13.1% | Activity [20]: 0.5% | viability at 5 µM [21]: 74.6% | Activity [22]: 6.5% | Activity [23]: 18.3% | Activity [24]: 0.7% | viability at 10 µM [25]: 65.7% | Activity [26]: 6.2% | Activity [27]: 27.9% | Activity [28]: 0.3%

CC(=O)c1ccc2c(c1)[C@@H]1C=CC[C@@H]1[C@H](c1cc3c(cc1Br)OCO3)N2
inhibition [29]: Active | inhibition [30]: Active | Activity [3]: Active | Activity [31]: Active | viability at 1 µM [5]: 80.9% | Activity [6]: 1% | Activity [7]: 16.9% | Activity [8]: 1.3% | viability at 5 µM [9]: 66.6% | Activity [10]: 2.9% | Activity [11]: 27.9% | Activity [12]: 2.7% | viability at 10 µM [13]: 61.4% | Activity [14]: 4.3% | Activity [15]: 33.3% | Activity [16]: 1% | viability at 1 µM [17]: 76.2% | Activity [18]: 7% | Activity [19]: 16.2% | Activity [20]: 0.6% | viability at 5 µM [21]: 66.6% | Activity [22]: 5.5% | Activity [23]: 28.2% | Activity [24]: 0.3% | viability at 10 µM [25]: 53.2% | Activity [26]: 7.2% | Activity [27]: 39.2% | Activity [28]: 0.4%

Cc1nc(NC(=O)c2ccsc2)c(C)c(C)c1O
inhibition at 1 µM [1]: 11.5% | inhibition at 1 µM [2]: 19.3%

Cc1nc(NC(=O)c2ccc(F)cc2)c(C)c(C)c1O
inhibition at 1 µM [2]: 5.5%

Cc1nc(NC(=O)c2ccc(Cl)cc2Cl)c(C)c(C)c1O
inhibition at 1 µM [1]: 58.6% | inhibition at 1 µM [2]: 46.4%

Cc1nc(NC(=O)c2ccccc2F)c(C)c(C)c1O
inhibition at 1 µM [1]: 36.4% | inhibition at 1 µM [2]: 66.4%

Cc1ccccc1C(=O)Nc1nc(C)c(O)c(C)c1C
inhibition at 1 µM [1]: 47.3% | inhibition at 1 µM [2]: 41.5%

Cc1nc(NC(=O)c2c(-c3ccccc3)noc2C)c(C)c(C)c1O
inhibition at 1 µM [1]: 18.8% | inhibition at 1 µM [2]: 37.8%

Nc1ccc(O)c(C(=O)O)c1 [MESALAMINE]
inhibition at 1 µM [1]: 9.9% | inhibition at 1 µM [2]: 1.7%

Cc1nc(NC(=O)c2ccoc2)c(C)c(C)c1O
inhibition at 1 µM [1]: 60.3% | inhibition at 1 µM [2]: 54.1%

Cc1nc(NC(=O)c2ccccc2Cl)c(C)c(C)c1O
inhibition at 1 µM [1]: 7.9% | inhibition at 1 µM [2]: 15%

Cc1ccc(C(=O)Nc2nc(C)c(O)c(C)c2C)cc1F
inhibition at 1 µM [1]: 68.2% | inhibition at 1 µM [2]: 59.5%

Cc1ccc(C(=O)Nc2nc(C)c(O)c(C)c2C)o1
inhibition at 1 µM [1]: 79.9% | inhibition at 1 µM [2]: 70.2%

Cc1nc(NC(=O)c2sc3ccccc3c2Cl)c(C)c(C)c1O
inhibition at 1 µM [2]: 11.4%

Cc1nc(NC(=O)c2ccc(-c3cc(Cl)ccc3Cl)o2)c(C)c(C)c1O
inhibition at 1 µM [1]: 78.2% | inhibition at 1 µM [2]: 69.6%

Cc1nc(NC(=O)c2cc3ccccc3s2)c(C)c(C)c1O
inhibition at 1 µM [2]: 27%

Cc1cccc(C(=O)Nc2nc(C)c(O)c(C)c2C)c1
inhibition at 1 µM [1]: 63.9% | inhibition at 1 µM [2]: 48.9%

Cc1nc(NC(=O)c2sc3cc(Cl)ccc3c2Cl)c(C)c(C)c1O
inhibition at 1 µM [2]: 9%

Cc1nc(NC(=O)c2ccccc2)c(C)c(C)c1O
inhibition at 1 µM [2]: 44.1%

COc1ccc(C(=O)Nc2nc(C)c(O)c(C)c2C)cc1
inhibition at 1 µM [2]: 6.5%

Cc1nc(NC(=O)c2ccc(F)cc2F)c(C)c(C)c1O
inhibition at 1 µM [1]: 71.4% | inhibition at 1 µM [2]: 62.4%

Cc1nc(NC(=O)c2ccc3ccccc3c2)c(C)c(C)c1O
inhibition at 1 µM [1]: 42.9% | inhibition at 1 µM [2]: 33.1%

Cc1nc(NC(=O)c2cccc(F)c2)c(C)c(C)c1O
inhibition at 1 µM [1]: 54.1% | inhibition at 1 µM [2]: 44.2%

Cc1nc(NC(=O)c2c(C)noc2C)c(C)c(C)c1O
inhibition at 1 µM [1]: 85% | inhibition at 1 µM [2]: 74%
